Test results as given in patent US20260207629A1, “COMPOSITION FOR IMPROVING SKIN COMPRISING CARNITINESALICYLATE AS AN ACTIVE INGREDIENT” (LG H&H CO., LTD., priority 2022, published 2026).

Columns and labels:
[1] = test system: C. acnes ribotype 5 (strain HL043PA1); test: Minimum inhibitory concentration (MIC) against C. acnes; type: cell-based; conditions: Cutibacterium acnes; C. acnes ribotype 5 strain HL043PA1, 72 h incubation, OD600, growth inhibited by more than 90%
Description: The minimum inhibitory concentrations (MICs) of CA-SA and magnolol against C. acnes were measured and compared with an antibiotic (clindamycin) and non-antibiotic agents (benzoyl peroxide and salicylic acid).
C. acnes ribotype 5 (strain HL043PA1) was cultured in a reinforced Clostridial broth medium (BD Diagnostics, Franklin Lakes, NJ) in an anaerobic environment (37° C., 175 rpm). Thereafter, each sample was dissolved in water or dimethyl sulfoxide (DMSO) and serially diluted two-fold, and 7.5 μL of the resulting solution was added to 142.5 μL of a bacterial suspension containing 7.5×10^5 CFU/mL, and incubated for 72 h. Thereafter, turbidity (OD600) was measured (Synergy 2 Multi-Mode Microplate Reader (BioTek Instrument, Winooski, VT)) to determine the MIC that inhibited bacterial growth by more than 90%.

stratum corneum (SC) = test: Stratum corneum softening, tape stripping test on volunteer's skin; type: in vivo, human; conditions: magnolol 0.2 mg/ml, 50 μl solution on skin for 3 h, SC protein increase relative to control
Description: To evaluate the softening efficacy on the stratum corneum (SC) of CA-SA and magnolol, a tape stripping test was performed on the SC.
After marking an application site on a volunteer's skin in advance, 50 μl of a solution including CA-SA and/or magnolol at the concentration shown in Table 4 was applied, and after three hours the skin surface was wiped to remove any remaining substances. A solution that included none of the evaluated substances was used as a control. A D-squame adhesive tape disk (CuDerm, Dallas, TX) was attached to the test site, and a cylindrical weight was used to apply a pressure of 150 g/cm^2 for three seconds, and then the pressure was removed and the tape was removed from the skin. Three tape strips were obtained from each marked site.
After collecting the tape strips in a polystyrene petri dish (Thermo Fisher), in order to perform keratinolysis quantification, 1 ml of 1 M NaOH was added to each petri dish and the dish was shaken for two hours. Thereafter, 75 μl of the solution was transferred to three wells (96-well plate, Corning), and each was neutralized with an equivalent volume of 1 M HCl. […] After 15 minutes, the optical density at 595 nm (OD 595 nm) was measured using an empty well as a correction value, and the amount of SC protein was quantified using a γ-globulin standard (Bio-Rad). […]

VEGF = test: Inhibition of VEGF expression induced by C. acnes lysate in HaCaT cells (ELISA); type: cell-based, human; conditions: magnolol 4 μg/ml, 4 h pretreatment, C. acnes lysate 30 min, vs positive control
Description: (§1) A human epidermal keratinocyte cell line (HaCaT cells) was sub-cultured at 37° C. in a humidified atmosphere containing 5% CO2 and 95% air. The medium used was DMEM containing 10% FBS (Gibco; Thermo Fisher, Waltham MA), penicillin (100 U/ml, Gibco), and streptomycin ([…], Gibco). Separately, the acne pathogen C. acnes ribotype 5 (Strain HL043PA1) (1.36×10^9 CFU/ml, OD=1.7) was cultured to prepare a C. acnes lysate. The C. acnes lysate was used to induce the expression of MMP-1 and VEGF in HaCaT cells.
(§2) Thereafter, the C. acnes lysate and the medium were mixed at a mass ratio of 3:7, and the resulting mixture was applied to HaCaT cells for 30 minutes. The supernatant was collected, and the concentrations of MMP-1 and VEGF were measured by enzyme-linked immunosorbent assay (ELISA) (R&D Systems Inc., Minneapolis, MN) using the manufacturer's protocol. […] The experimental group treated only with the C. acnes lysate was set as the positive control group, and the reduction value of the sample treatment group compared to the positive control group was calculated and is shown in Table 3. […]
(§3) Colby Equation: E=(A+B)−(A*B/100); E: predicted value; A: efficacy of active ingredient A; B: efficacy of active ingredient B. When the actual measurement value is greater than the predicted value, it is determined that there is a synergistic effect.

MMP-1 = test: Inhibition of MMP-1 expression induced by C. acnes lysate in HaCaT cells (ELISA); type: cell-based, human; conditions: magnolol 4 μg/ml, 4 h pretreatment, C. acnes lysate 30 min, vs positive control
Description: as §1, §2, §3

[2] = test system: erythema induced by 1% sodium dodecyl sulfate (SDS); test: Skin erythema recovery after SDS erythema induction (Mexameter erythema index); type: in vivo, human; conditions: emulsion with magnolol 0.02% by weight, twice a day for 12 days, forearm, vs vehicle application group
Description: To evaluate the erythema recovery efficacy, an erythema index was evaluated before erythema induction, after erythema induction, and 12 days after product use in nine volunteers aged 25 to 35 years. Erythema was induced by applying 1% sodium dodecyl sulfate (SDS) dilution to the forearm for 24 hours, and an emulsion comprising CA-SA 5% by weight of, an emulsion comprising magnolol 0.02% by weight of, an emulsion comprising 5% CA-SA and 0.02% magnolol by weight, and an emulsion containing neither CA-SA nor magnolol (vehicle) was repeatedly applied to the same area twice a day, in the morning and evening, for 12 days.
The erythema index was measured using a Mexameter (MX 18, Courage+Khazaka electronic GmbH, Germany). The erythema index recovery rate was calculated using the following formula, and the effect was compared in terms of the percentage value increase in the erythema index recovery rate of the emulsion application group including each sample relative to the erythema index recovery rate of the vehicle application group (relative recovery rate).
In order to confirm the synergistic effect of CA-SA and magnolol, the predicted values (Colby values) and the actual measurement values were compared using the Colby Equation in the same manner as in Experimental Example 3, and the results are shown in Table 5.

SZ95 cells = test: Lipid production inhibition in testosterone-treated SZ95 cells (Nile red); type: cell-based; conditions: magnolol 0.5 μg/ml, 48 h, vs positive control
Description: It was evaluated whether CA-SA and/or magnolol could control sebum secretion by inhibiting lipid production.
SZ95 cells, which are […] sebaceous cells, were cultured and maintained in a humidified atmosphere containing 5% CO2 and 95% air at 37° C. The medium used was Dulbecco's Modified Eagle Medium (DMEM)/Ham's F12 medium (Gibco) supplemented with 10% fetal bovine serum (FBS) and 5 ng/ml recombinant human epidermal growth factor (Invitrogen; Thermo Fisher, Waltham MA). After performing sub-confluent culture, cells were harvested with 0.05% trypsin-ethylenediaminetetraacetic acid (EDTA) (Gibco) and passaged, and cells obtained from the second passage were used.
The cells were seeded at 1×10^5 cells per well in a 24-well plate (Greiner, Frickenhausen, Germany) and cultured at 37° C. and 5% CO2 for 24 h. Thereafter, the cells were treated with 2×10^−8 M testosterone for 24 h to stimulate lipid production. […]
The well plate was covered with aluminum foil to block light, and fluorescence was measured at Ex/Em=550/580 nm using a microplate reader (BioTek Instruments, Inc.). The percentage value of the absolute fluorescence unit compared to the negative control group was used as the result value. Thereafter, the reduction value of the sample treatment group compared to the positive control group was calculated and is shown in Table 2.

Q: O=C(OOC(=O)c1ccccc1)c1ccccc1 [Benzoyl peroxide, benzoyl peroxide] was tested. Which MIC [1] did it give?
A: 2500 µg/mL

Q: Which MIC [1] does the source give for CCC[C@@H]1C[C@@H](C(=O)N[C@@H]([C@H]2O[C@H](SC)[C@H](O)[C@@H](O)[C@H]2O)[C@H](C)Cl)N(C)C1 [Clindamycin, clindamycin] here?
A: 156 µg/mL

Q: How did the SC exfoliation rate (stratum corneum (SC)) turn out when C=CCc1ccc(O)c(-c2cc(CC=C)ccc2O)c1 [Magnolol, magnolol] was run?
A: −22.3%

Q: What about the VEGF reduction value (VEGF) of the same molecule?
A: 21.2%

Q: What about the MMP-1 reduction value (MMP-1) of the same molecule?
A: 33.6%

Q: What about the “Relative recovery rate (erythema index)” value [2] of the same molecule?
A: 16.2%

Q: What about the “Reduction value (lipid production)” value (SZ95 cells) of the same molecule?
A: 3.8%

Q: With O=C(O)c1ccccc1O [Salicylic acid, salicylic acid] as the molecule, how does the MIC [1] read?
A: 4000 to 8000 µg/mL
